Results taken from patent US5792750A, “Materials and method for control of pests” (priority 1997, dated 1998).
No end group written: not given here.

Columns and labels:
[1] = Stability in solution of mosquito homogenate (including digestive enzymes); assay type: in vitro ADME; settings: room temperature, two weeks
Description: The compounds of the subject invention are white powders that are highly soluble in water. They can be synthesized on a commercial peptide synthesizer. […] Thus, these peptides are particularly attractive for the control of mosquitoes and other pests. Another advantage of the penta- and octa-peptides of the subject invention is that they are more rapidly absorbed in the insect gut. […] Thus, the novel peptides display a more rapid action, a decreased chance for insect gut enzymes to proteolyze the peptide, and high activity. The peptides were not affected by 1% trifluoroacetic acid and were routinely purified using this acid on HPLC.

[2] = tested on: trypsin-like enzyme biosynthesis in the midgut; experiment: Inhibition of trypsin-like enzyme biosynthesis after injection of peptides into ligated abdomens of blood-fed female mosquitoes; assay type: in vivo, Aedes aegypti; settings: for biological activity: against Aedes aegypti, compared with TMOF or among the analogs; for ability to inhibit trypsin-like enzyme biosynthesis: ligated abdomens of female A. aegypti, 24 hours after injection

| Substance | activity after standing in mosquito homogenate [1] | biological activity [2] | ability to inhibit trypsin-like enzyme biosynthesis [2] |
| --- | --- | --- | --- |
| YDPAP [Peptide P1, H2 N--YDPAP--COOH] | without loss of activity | even greater activity than the octa-peptideP4 | demonstrated an ability to inhibit trypsin-like enzyme biosynthesis |
| YDPAPPPP [Peptide P4, H2 N--YDPAP4 --COOH] |  | retains biological activity | demonstrated an ability to inhibit trypsin-like enzyme biosynthesis |
| YDPAPPPPPP [TMOF, reference compound] |  |  | demonstrated an ability to inhibit trypsin-like enzyme biosynthesis |
